The values that follow come from patent US12564568B2, “PKC pathway in Parkinson's Disease” (CEDARS-SINAI MEDICAL CENTER, priority 2018, dated 2026).

Experiment [1] relates to p-PKCα. To be noted: for phospho PKCα level: D30 mDA neurons (FIG. 37).
Experiment [2] relates to α-synuclein. In words: α-synuclein protein level in day 30 iPSC-derived mDA (DaN) cultures after drug treatment (western blot, immunostaining). It counts as cell-based, human. To be noted: for synuclein level: D30 mDA neurons (FIG. 37); for α-synuclein level: phorbol ester PKC agonists, PMA 10 μM, PRO 5 μM, day 27-30; for α-synuclein levels (western blot): EOSPD/PD cultures (190iPD); for α-synuclein levels (western blot) / amount of α-synuclein protein (western blot): treated 3 days from day 27, PEP005 1 μM, SMER-28 5 μM, Trehalose; for amount of α-synuclein protein (western blot): control line cultures (02iCTR). Here is the method:
(§1) iPSC maintenance, mDA neuron differentiation and drug treatments: iPSCs were maintained in E8 media on Matrigel and passaged every 5 days at split ratios from 1:6 to 1:12 as needed using Versene. Only iPSCs between passage 17 and passage 35 were used in this study. For differentiation, iPSCs were grown to ˜80% confluency. Cells were singularized with Accutase (Millipore/Sigma #SCR005) (5 minutes at 37° C.) and plated onto Matrigel-coated 6-well plates (BD Biosciences) at 200K cells per cm^2 (for a fully confluent monolayer) in E8 media with 5 μM Y27632 (StemGent). 24 hours after plating, media was changed to Stage 1 (50% DMEM/F12, 50% Neurobasal, N2, B27-Vitamin A, LDN-193189 (LDN), SB431542 (SB)). Stage 1 media was changed each day (3 mL per well) for 3 days. Media was next switched to Stage 2 (50% DMEM/F12, 50% Neurobasal, N2, B27-Vitamin A, LDN, SB, Purmorphamine (PMN), CHIR99021 (CHIR), Sonic hedgehog (SHH), Fibroblast Growth Factor 8 (FGF8)). Stage 2 media was changed each day (3 mL per well) for 4 days. Media was then switched to Stage 3 (50% DMEM/F12, 50% Neurobasal, N2, B27-Vitamin A, LDN, CHIR, all-trans-Retinoic acid (ATRA)). Stage 3 media was changed each day (3 mL per well) for 4 days. Finally, media was switched to Stage 4 (50% DMEM/F12, 50% Neurobasal, N2, B27+Vitamin A, Brain-Derived Neurotrophic Factor (BDNF), Glial Cell Line-Derived Neurotrophic Factor (GDNF), dibutyryl cyclic-AMP sodium salt (dbCAMP), L-Ascorbic Acid (AA), γ-Secretase inhibitor (DAPT), CHIR, Transforming Growth Factor beta-3 (TGF β3)). Stage 4 media was changed each day (3 mL per well) for 3 days. On day 15, cells were dissociated to single cells using Accutase (20 mins at 37° C.) and gently lifted. Dissociated cells were resuspended in Maturation Medium (50% DMEM/F12, 50% Neurobasal, N2, B27+Vitamin A, BDNF, GDNF, dbCAMP, AA, DAPT, TGF3) plus 5 μM Y27632 and reseeded onto Matrigel-coated 6-well plates at 200 k/cm^2 in 1 mL total volume or onto Matrigel-coated L-glass coverslips in a 24-well plate at 200 k/50 μL drop. Cells were allowed to attach for 45 mins at 37° C. and Maturation Medium was then added to final volumes of 3 mL per well for 6-well plates or 1.5 mL per well for 24-well plates with coverslips. A full medium change was performed 48-hours post-seeding and medium was changed every 3 days until day 30. For drug treatments, cells at day-27 were fed with Maturation Medium containing the indicated drug and cells were analyzed at day 30.
Immunocytochemistry and imaging: mDA neuron cultures were plated on L-glass coverslips and grown as above. Day 30 neurons were fixed in 4% PFA at room temperature for 10-15 mins. Fixed coverslips were washed in PBS and permeabilized for 10 minutes at room temperature in 1% Triton X-100 in PBS, followed by staining in primary antibody solution (5% normal donkey serum, 0.125% Triton-X, PBS) overnight at 4° C. with the following antibodies: TH (1:5000, Immunostar #22941) and α-synuclein (1:500, Abcam #ab138501). Samples were washed 3 times in PBS and stained with species-specific Alexa Fluor 488 or 594-conjugated secondary antibodies (1:500, Invitrogen) for 2 hours at room temperature, followed by DAPI counterstain. Confocal Z-stack images were acquired using a A1 microscope (Nikon) with 40× and 20× objectives and rendered using maximum intensity projection through IMARIS software (Bitplane).
Western blot: Cells were gently scraped off the plates, washed with PBS, centrifuged at 15000 RPM for 1 min, and dry pellets were frozen at −80° C. Samples were then thawed and lysed using 1×NETN buffer (20 mM Tris-HCl (pH 8.0), 100 mM NaCl, 0.5 mM EDTA and 0.5% NP-40) supplemented with phosphatase/protease inhibitor cocktail (MS-SAFE, Sigma-Aldrich). Lysates were sonicated in an automated cold bath sonicator for 20 mins using alternating 10 sec pulses followed by 10 sec rests. Samples were centrifuged for 20 min at 4° C. at 15000 RPM. Total soluble protein concentrations were measured using a Bradford assay (BIO-RAD). […]
On the technique in general: A western blot detects proteins with antibodies after separation by electrophoresis.

Experiment [3] has as its system P53. In words: P53 level in mDA cultures under proteasome inhibitor, 24 hrs (western blot). It counts as cell-based, human. To be noted: mDA/DaN cultures, 24 hrs treatment. On the procedure: Protein degradation can be largely divided into protosomal and autophagy/lysosomal degradation pathways.
Western blot: Cells were gently scraped off the plates, washed with PBS, centrifuged at 15000 RPM for 1 min, and dry pellets were frozen at −80° C. Samples were then thawed and lysed using 1×NETN buffer (20 mM Tris-HCl (pH 8.0), 100 mM NaCl, 0.5 mM EDTA and 0.5% NP-40) supplemented with phosphatase/protease inhibitor cocktail (MS-SAFE, Sigma-Aldrich). Lysates were sonicated in an automated cold bath sonicator for 20 mins using alternating 10 sec pulses followed by 10 sec rests. Samples were centrifuged for 20 min at 4° C. at 15000 RPM. Total soluble protein concentrations were measured using a Bradford assay (BIO-RAD). […] Combined α-synuclein and p-PKCα expression plots were calculated by first normalizing bands to β-actin, then to the 02iCTR signal present in each blot. […] ROC plot and area under the curve was determined using R package ROCR to determine predicative probability percentages.
To test overall degradation rates, global […] function was inhibited in culture for 48 hours via cycloheximide treatment and protein was assessed and quantified over time. […] A significant reduction in the amount of LAMP1 was detected in all 3 EOSPD lines, which was consistent with the proteomics analysis. […]

Experiment [4] deals with α-synuclein. In words: α-synuclein protein level in day 30 iPSC-derived mDA (DaN) cultures after drug treatment (western blot, immunostaining). Type of experiment: cell-based, human. To be noted: control and EOSPD cultures, 24 hrs treatment.
Experiment [5] has as its system tyrosine hydroxylase (TH). Type of experiment: cell-based, human. As to conditions: mDA cultures, phorbol ester PKC agonists; PMA 10 μM, PRO 5 μM, day 27-30. On the procedure: as §1
Analytical flow cytometry: Day-30 cultures in 6-well plates were washed once in phosphate buffered saline (PBS) then 1 mL Accutase was added to each well and incubated for 25 mins at 37° C. or until the cells fully lifted. Cells were washed with an additional 2 mL Maturation Medium and very gently triturated until large clumps were no longer visible at which point cells were pelleted by centrifugation (1500 RPM for 3 mins). Cells were gently resuspended in 4% paraformaldehyde (PFA) in PBS and allowed to fix for 10-15 mins at room temperature. Fixed single cells were permeabilized using 1% Trition X-100 (Sigma-Aldrich) and stained using primary antibodies against TH (1:500 Immunostar, 22941), α-synuclein (1:1000 Abcam, ab138501), and MAP2ab (1:1000 Sigma-Aldrich, M1406), or isotype controls at same dilution (Cell Signaling IgG Isotype Control rabbit #3900S and mouse #5415S). Secondary antibodies (Alexa Fluor 488 and 594 donkey anti-mouse and donkey anti-rabbit, Invitrogen) were used at 1:500. Stained samples were quantified on an LSR Fortessa cytometer using BD FACSDiva software.
Immunocytochemistry and imaging: mDA neuron cultures were plated on L-glass coverslips and grown as above. Day 30 neurons were fixed in 4% PFA at room temperature for 10-15 mins. […]

Entries after “also recorded” stand apart in the source; their conditions may differ. Where two headings read alike, the source gives them in different places. Where a SMILES comes first, the peptide text is derived from it. The star is where a group is joined. Cbz = O=C(OCc1ccccc1)*

Turning to `CCC/C=C/C=C/C(=O)O[C@H]1/C(=C/C(=O)OC)C[C@H]2C[C@H]([C@@H](C)O)OC(=O)C[C@H](O)C[C@@H]3C[C@H](OC(C)=O)C(C)(C)[C@](O)(C[C@@H]4C/C(=C/C(=O)OC)C[C@H](/C=C/C(C)(C)[C@]1(O)O2)O4)O3` [Bryostatin 1], the “phospho PKCα level” value in experiment [1] is “reduction”; in experiment [1] (listed as Bryostratin), “did not seem to affect”. Further, the synuclein level result in experiment [2] was “unclear effects”; in experiment [2] (listed as Bryostratin), “did not seem to affect”.

With `CC(C)C[C@@H](C=O)NC(=O)[C@H](CC(C)C)NC(=O)[C@H](CC(C)C)NC(=O)OCc1ccccc1` [MG132] (Cbz-Leu-Leu-Leu-aldehyde), the P53 level entry in experiment [3] is “accumulation”. For the same compound, the “α-synuclein levels under proteasome inhibition” value in experiment [4] is “no significant increase; also recorded: no substantial change”.

`CCCCCCCCCCCCCC(=O)O[C@@H]1[C@@H](C)[C@@]2(O)[C@@H](C=C(CO)C[C@]3(O)C(=O)C(C)=C[C@@H]23)[C@@H]2C(C)(C)[C@]12OC(C)=O` [PMA, Phorbol 12-myristate 13-acetate]: the p-PKCα level entry in experiment [1] (mDA cultures, phorbol ester PKC agonists, PMA 10 μM, PRO 5 μM, day 27-30) is reported as “reduction”. Moreover, the TH level entry in experiment [5] is given as “increases”. The α-synuclein level result in experiment [2] (mDA cultures) is reported as “reduction”.

Consider `CC(=O)O[C@@]12C[C@@H](C)[C@@]3(O)[C@@H](C=C(CO)C[C@]4(O)C(=O)C(C)=C[C@@H]34)[C@@H]1C2(C)C` [PRO, Prostratin], for which the TH level result in experiment [5] is “increases”. Moreover, in experiment [2] (dose response study, mDA cultures), the “α-synuclein expression, dose response” value is on record as “decreased”. Also, in experiment [2] (mDA cultures), the α-synuclein level entry is “reduction”.

As for `C=CCNc1ncnc2ccc(Br)cc12` [SMER28], in experiment [2], the “α-synuclein levels (western blot)” value is listed as “not” and the “amount of α-synuclein protein (western blot)” value is “significantly reduced”. Besides, in experiment [2] (listed as SMER-28), the “amount of α-synuclein protein (western blot)” value is given as “reduction”.

As to `OC[C@H]1O[C@H](O[C@H]2O[C@H](CO)[C@@H](O)[C@H](O)[C@H]2O)[C@H](O)[C@@H](O)[C@@H]1O` [Trehalose], in experiment [2], the “α-synuclein levels (western blot)” value is given as “reduced; also recorded: reduction”.
